According to the supplement of paper PMC8149375:

What was measured:
Settings in all cases: treatment: drug alone; 5 days
769-P [1] = experiment: GI50, drug alone; higher = less potent
Description: (§1)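 Primary HTS: 8 RCC cell lines treated with 8 doses (up to 10 uM) of each library drug alone for 5 days; viability read by CellTiter-Glo and normalised to DMSO. GI50 was fitted with XLfit (4-parameter), AUC is the area under the dose-response curve, and minimum viability is the lowest fraction of DMSO viability across doses.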

786-O [2] = experiment: GI50, drug alone; higher = less potent
Description: as §1

UO-31 [3] = experiment: GI50, drug alone; higher = less potent
Description: as §1

ACHN [4] = experiment: GI50, drug alone; higher = less potent
Description: as §1

A498 [5] = experiment: GI50, drug alone; higher = less potent
Description: as §1

SN12C [6] = experiment: GI50, drug alone; higher = less potent
Description: as §1

TK-10 [7] = experiment: GI50, drug alone; higher = less potent
Description: as §1

CAKI-1 [8] = experiment: GI50, drug alone; higher = less potent
Description: as §1

769-P [9] = experiment: minimum viability across doses, drug alone, relative to DMSO (fraction); higher = less growth inhibition
Description: as §1

786-O [10] = experiment: as above
Description: as §1

UO-31 [11] = experiment: as above
Description: as §1

ACHN [12] = experiment: as above
Description: as §1

A498 [13] = experiment: as above
Description: as §1

SN12C [14] = experiment: as above
Description: as §1

TK-10 [15] = experiment: as above
Description: as §1

CAKI-1 [16] = experiment: as above
Description: as §1

769-P [17] = experiment: AUC of dose-response viability curve, drug alone (arbitrary (AUC of normalised viability)); higher = less growth inhibition
Description: as §1

786-O [18] = experiment: as above
Description: as §1

UO-31 [19] = experiment: as above
Description: as §1

ACHN [20] = experiment: as above
Description: as §1

A498 [21] = experiment: as above
Description: as §1

SN12C [22] = experiment: as above
Description: as §1

TK-10 [23] = experiment: as above
Description: as §1

CAKI-1 [24] = experiment: as above
Description: as §1

GI50, drug alone (786-O [2]) [µM]	GI50, drug alone (ACHN [4]) [µM]	Structure (SMILES)	GI50, drug alone (769-P [1]) [µM]	GI50, drug alone (UO-31 [3]) [µM]	GI50, drug alone (A498 [5]) [µM]	GI50, drug alone (SN12C [6]) [µM]	GI50, drug alone (TK-10 [7]) [µM]	GI50, drug alone (CAKI-1 [8]) [µM]	minimum viability across doses (769-P [9])	minimum viability across doses (786-O [10])	minimum viability across doses (UO-31 [11])	minimum viability across doses (ACHN [12])	minimum viability across doses (A498 [13])	minimum viability across doses (SN12C [14])	minimum viability across doses (TK-10 [15])	minimum viability across doses (CAKI-1 [16])	AUC of dose-response viability curve (769-P [17])	AUC of dose-response viability curve (786-O [18])	AUC of dose-response viability curve (UO-31 [19])	AUC of dose-response viability curve (ACHN [20])	AUC of dose-response viability curve (A498 [21])	AUC of dose-response viability curve (SN12C [22])	AUC of dose-response viability curve (TK-10 [23])	AUC of dose-response viability curve (CAKI-1 [24])
> 10	> 10	CCOC(=O)C1=C(N)Oc2ccc(Br)cc2[C@H]1[C@H](C#N)C(=O)OCC [HA14-1]	> 10	> 10	> 10	> 10	> 10	> 10	0.973	0.81	0.891	0.852	0.885	0.867	0.948	0.957	3.84	3.27	4.2	3.35	3.57	3.19	3.55	3.67
0.116	0.262	COc1ccc(S(=O)(=O)N(C(C)=O)c2ccccc2/C=C/c2cc[n+]([O-])cc2)cc1 [HMN-214]	0.541	0.455	0.378	0.714	0.694	0.293	0.0968	0.00365	0.00366	0.127	0.119	0.167	0.285	0.182	2.36	1.3	2.75	2.14	2.36	2.47	2.14	2.1
0.0639	0.111	CCS(=O)(=O)Nc1ccc2c(c1)/C(=C(/Nc1ccc(CN3CCCCC3)cc1)c1ccccc1)C(=O)N2 [Hesperadin]	1.18	2.49	2.5	0.199	1.46	0.189	0.0547	0.0109	0.0115	0.00749	0.0284	0.00306	0.0523	0.0394	2.53	1.54	3.32	1.63	3.72	1.86	2.46	1.85
0.412	0.943	O=C(Nc1cc(C(F)(F)F)cc(C(F)(F)F)c1)c1cc(Cl)ccc1O [IMD 0354]	1.29	2.96	1.59	1.35	1.22	1.08	0.0108	0.00771	0.019	0.00484	0.0128	0.00716	0.0653	0.036	2.71	2.03	4.73	2.4	3.46	2.67	2.4	2.8
